Test results: article PMC7048748, “Anxiolytic Drug FGIN-1-27 Ameliorates Autoimmunity by Metabolic Reprogramming of Pathogenic Th17 Cells” (Scientific Reports, 2020)

How the values were obtained:
[1] = tested on: polarized Th17 cells; assay: IL-17 production in fully differentiated Th17 cells after re-stimulation; type: cell-based, mouse; conditions: on re-stimulation
Experimental: We also tested whether FGIN-1-27 regulated IL-17 production in fully differentiated Th17 cells. […] Thus, FGIN-1-27 inhibits Th17 cell differentiation in vitro without compromising T cell activation or survival.
(h) Dose response plot showing effect of FGIN-1-27 on intracellular IL-17 and viability in pre- differentiated Th17 cells after re- stimulation. Data is normalized against […]
(i) Mean clinical scores of mice following active induction of EAE. Mice were injected i/p twice daily with vehicle or FGIN-1-27 for 7 days. Data are pooled from 5 mice/group. The error bars represent SEM.
(j) Binding of FGIN-1-27 to TSPO in a radioligand displacement assay. Inhibition of binding of control (radiolabeled PK-11195) was used to determine binding of FGIN- […]
(1 picture or pasted object on this page, not shown here)

[2] = tested on: ATF4; assay: Western blot for ATF4; type: cell-based, mouse; conditions: 24 hours, compared to DMSO controls
Experimental: (a) MA-plot showing shrunken log2 fold-changes of detected genes between the DMSO and FGIN-1-27 RNA-seq samples, ranked by average normalized count. Red dots indicate differentially expressed genes at adjusted p-value <0.05. (b) Transcript levels for the indicated genes after 24 hours of treatment with DMSO or FGIN-1-27 quantified by qPCR. The error bars represent SD. (c) Western blot analysis for phosphorylated eIF2α and ATF4 24 hours after treatment with DMSO or FGIN-1-27 (5 and 10 µM). Data are representative of 3 independent experiments. (d) Amino acids in Th17 cells measured 72 hours after treatment with FGIN-1-27. The error bars represent SD. (e) ROS was measured using cell permeant reagent 2′,7′ –dichlorofluorescin diacetate (DCFDA) at 24 hours following treatment with FGIN-1-27. Filled grey histogram-DMSO, dotted line-FGIN-1-27 (10 µM) and dashed line indicates FGIN-1-27 (5 µM). […] Data are normalized using DMSO treated cells as 100% and the error bars represent SD.
Cell lysates were prepared by lysis in RIPA buffer containing protease and phosphatase inhibitors and immunoblotting was performed by standard methods.
(a) W estern blot analysis for phosphorylated eIF2α and ATF4 24 hours after treatment
with DMSO or FGIN-1-27 (5 and 10 µM). […]
(a) Indicated sterols were measured in Th17 cells treated with DMSO or FGIN-1-27 for […]

In the case of `CCCCCCN(CCCCCC)C(=O)Cc1c(-c2ccc(F)cc2)[nH]c2ccccc12` [FGIN-1-27, N, N-di-n-hexyl 2-(4-fluorophenyl) indole-3-acetamide], the “IL-17 producing cells in fully differentiated Th17 cells” value [1] is reported as “fewer IL-17 producing cells were detected” and the “increase in ATF4 translation” value [2] is reported as 2.8 fold.
